Patent publication US20210244028A1, “TREATMENT FOR REMOVING ECTOPARASITES FROM FISH” (priority 2018, published 2021)
Where “and” joins values, the source holds several entries; their conditions need not be identical. Equal values may be shown once.

Columns and labels:
[1] = test system: azamethiphos- and deltamethrin-resistant sea lice; assay: In vitro bath exposure of isolated sea lice (Example 6); details: 60 minutes exposure; for % effect: registered approx. 20 h after end of exposure
Procedure: A trial was performed to ensure there was no cross-resistance between azamethiphos- and deltamethrin-resistant sea lice and neonicotinoids. Both pre-adult and adult stages (mobile stages) of both sexes were used, and they were equally distributed among groups. The sea lice were exposed to imidacloprid for 60 minutes, azamethiphos for 60 minutes and deltamethrin for 30 minutes in one litre baths at a range of concentrations (Tables 6, 7 and 8). The sea lice were transferred to clean aerated seawater after treatment. The temperature of the seawater during the experiment was 12° C., but during exposure the temperature raised to approx. 14° C. in regimes exposed for 60 min. (imidacloprid and azamethiphos) and to 13° C. for the regime exposed in 30 minutes (deltamethrin).
The numbers of live and immobilised (including killed) lice in each regime were registered approximately 20 h after end of exposure. Each louse was individually investigated.

[2] = test system: Lepeophtheirus salmonis; assay: Immersion treatment of sea lice-challenged salmon in tanks, 1 or 6 weeks post challenge (Example 1); format: in vivo
Text: Eight flow-through treatment tanks each containing 15 fish were set up. The fish were Salmon (Salmo salar) having an average weight of approximately 270 g and of mixed sex. Egg strings removed from ovigerous female Lepeophtheirus salmonis were collected and cultured until infective copepodids were produced. Eight bottles containing approximately 330-350 copepodids were each randomly allocated to a treatment tank (to provide an average of 22 lice per fish).
In preparation for the challenge, water flows in the tanks were stopped and light levels reduced. The lice were then added to each tank and the tanks maintained in total darkness for 6 hours after which light levels were raised and the water flow resumed.
The fish were challenged with sea lice for either one week or for six weeks.
One week after the sea lice challenge, fish in three of the tanks were treated with either 10 ppm w/v, 30 ppm w/v or 50 ppm w/v imidacloprid. One of the tanks was treated with 0.03% DMSO and another tank sham treated with sea water as controls.
For each treatment tank, the appropriate amount of imidacloprid (see Table 1) was dissolved in 100 ml of DMSO and mixed with approximately 900 ml of sea water from the experimental tank to obtain a treatment solution. The water flow on the experimental tanks was disabled and the treatment solution was then added.
Fish were exposed for 60 minutes in static water with full aeration and observed during the exposure period. At the end of the exposure period the water was rapidly drained to approximately ⅓ volume, before the flows were resumed in the tanks.
Six weeks after the fish were challenged with sea lice, the fish in the three remaining treatment tanks were treated with either 10 ppm w/v, 30 ppm w/v or 50 ppm w/v imidacloprid. The treatment was carried out in the same way as for the treatment tanks one week post challenge (see 1.2.1).
Eight weeks after the fish were challenged with sea lice, the study was terminated. Fish were over anaesthetised in MS222 (tricaine methanesulfonate) and pithed using an Iki Jime tool.
The length and weight of each fish and external symptoms were recorded. All lice were removed from each fish and note made of sex and stage of development. The lice were stored in ethanol and sex and stage confirmed using stereo microscope.
The data is expressed as prevalence and abundance. Prevalence is defined as the number of hosts infected with one of more individuals of a parasite species divided by the number of hosts examined (including infected and uninfected hosts) and expressed as a percentage.

[3] = test system: Lepeophtheirus salmonis; assay: Relative efficacy study, 60 min static bucket treatment of infected salmon (Example 2.2); format: in vivo
Procedure: 120 salmon fish (Salmo salar) were divided across five flow-through treatment tanks and acclimated for 24 hours prior to parasite challenge.
Egg strings removed from ovigerous female Lepeophtheirus salmonis were collected and cultured until infective copepodids were produced. The copepodids were then evenly distributed into five bottles containing sea water and stored at ˜10° C. overnight. In preparation for the challenge, water flows in the treatment tanks were stopped and light levels reduced. 650±20 copepodids (˜27 per host) were added to the static water and the tanks maintained in total darkness for 7 hours after which light levels were raised and the water flow resumed.
Fish were randomly divided into ten groups of ten fish and held in static ‘treatment buckets’ containing 30 L of water and high aeration as shown in Table 3. […]
Experimental animals were monitored closely for adverse reactions and the status of the parasite infection. Where possible the time at which all parasites were thought to have detached was recorded. As treatments were performed in static systems, temperature and dissolved oxygen were regularly monitored throughout the procedure and aeration adjusted as required.
After the treatment period, the test animals were removed from the treatment solution and humanly euthanised. Each fish was weighed, measured, and its individual parasite burden assessed. The number of parasites in the treatment solution was also counted and qualitatively assessed for: sex and maturity, apparent signs of neonicotinoid poisoning, and/or potential recovery.
Logistic regression was used to compare parasite clearance after treatment with each of the concentration. Logistic regression analyses were performed using the glm function in R v.2.13.0 and assumed a binomial or quasi-binomial error distribution (determined through the comparison of the null deviance with the degrees of freedom).

[4] = test system: pre-adult and adult sea lice; assay: Timescale of effect on sea lice on killed salmon suspended in treatment water (Example 5)
Procedure: To determine the timescale of the effect of imidacloprid, salmon infected with pre-adult and adult sea lice were removed from a stock tank and killed using a sharp blow to the head.
For fish exposed to 0 ppm imidacloprid (negative controls), observations were made for 60 minutes. […] Three fish per treatment group were tested.
Observations on the time at which lice left the host, and the sex and stage of the sea louse was noted. Any lice that left the host were transferred to clean sea water immediately. Furthermore, any lice remaining on the host at the end of the exposure period were removed from the host and transferred to clean sea water.
Lice were observed both shortly after and approximately 2 hours after the end of the exposure period.
The ratio of male to female sea lice was around 50:50. The water temperature was around 12° C.

## O=[N+]([O-])NC1=NCCN1Cc1ccc(Cl)nc1 [imidacloprid]
[1]; 5 ppm
  % effect: 30%
[1]; 10 ppm
  % effect: 40% and 50%
[1]; 15 ppm
  % effect: 100%
[1]; 20 ppm
  % effect: 100%
[1]; 30 ppm
  % effect: 100%
[1]; immobilisation approx. 20 h after exposure
  estimated EC50 value: 7.6 ppm
[2]; 10, 30 or 50 ppm w/v, treated one week post challenge
  Overall lice abundances compared with the DMSO control: No significant differences
[2]; 30 ppm w/v, treated 6 weeks post challenge
  Time after addition at which no fish were visibly infected with lice: 59 min
[2]; 30 ppm w/v, two days post-treatment
  Lesions associated with feeding and attachment of lice: almost completely resolved
[2]; 50 ppm w/v, treated 6 weeks post challenge
  Time after addition at which no lice were visible on the fish: 81 min
[2]; 50 ppm w/v, two days post treatment
  Lesions associated with feeding and attachment of lice: almost completely resolved
[3]; 10 mg/l
  Parasites remained attached to their hosts at the sampling point: 20%
[3]; 25 mg/l
  Parasites remained attached to their hosts at the sampling point: 3%
[3]; 15 and 20 mg/l
  Parasites remained attached to their hosts at the sampling point: 8%
[4]; 20 mg/L, of 49 lice exposed
  Lice considered dead at 30 minutes post-exposure: two
[4]; 50 ppm
  Lice considered dead at 2 hours p.e.: 14
[4]; 50 ppm, of 21 lice exposed
  Lice considered dead at 30 minutes: four
[4]; 100 ppm
  Lice considered dead at 2 hours p.e.: 17/28
[4]; 100 ppm, of 28 lice exposed
  Lice considered dead at the end of the exposure period: four
[4]; 200 ppm, of 26 lice exposed
  Lice considered dead 2 hours post-exposure: Six
  Lice considered dead at the end of the exposure period: four
[4]; 500 ppm
  Lice considered dead 30 minutes p.e.: Six out of 20
  Lice considered dead at 2 hours p.e.: 15/20
[4]; 500 ppm, dead host, around 12° C.
  Lice that left the host within the first 9 minutes: around 70%
[4]; between 20 and 200 ppm, dead host, around 12° C.
  Lice that left the host within the first 15 minutes: around 50%
